Results published in publication PMC5513091, “A novel Alzheimer’s disease drug candidate targeting inflammation and fatty acid metabolism” (Alzheimer's Research & Therapy, 2017).

Assays:
[1] = Body weights and food consumption during feeding study; assay type: in vivo, mice; conditions: 200 ppm in diet for 3 months, measured weekly; data not shown
Protocol: The APPswe/PS1∆E9-transgenic mice were characterized previously. Line 85 mice carry two transgenes, the mouse/human chimeric APPswe, linked to Swedish familial AD and human PS1∆E9. At 10 months of age, female transgenic mice were fed a defined diet (Harlan Teklad; Envigo, Indianapolis, IN, USA) with and without CAD-31 (200 ppm, approximately 10 mg/kg/day). Treatment continued for 3 months, followed by behavior testing and tissue harvesting.

[2] = system: eIF2α phosphorylation; test: Immunoblotting of hippocampal tissue; assay type: in vivo; conditions: hippocampus, WT and old AD mice, 200 ppm in chow 3 months
Protocol: (§1) Hippocampal tissue samples were homogenized in 10 volumes of radioimmunoprecipitation assay (RIPA) lysis buffer (50 mM Tris, pH 7.5, 150 mM NaCl, 0.1% SDS, 0.5% deoxycholate, and 1% Nonidet P-40) containing a cocktail of protease and phosphatase inhibitors [[…] each of pepstatin A, aprotinin, phosphoramidon, and leupeptin; 0.5 mM 4-(2-aminoethyl)benzenesulfonyl fluoride hydrochloride; 1 mM ethylene glycol-bis(β-aminoethyl ether)-N,N,N′,N′-tetraacetic acid; 5 mM fenvalerate; and 5 mM cantharidin]. Samples were sonicated (2 × 10 seconds) and centrifuged first at 10,000 × g for 10 minutes and then at 100,000 × g for 60 minutes at 4 °C. The 100,000 × g pellet was taken up either in 6 M guanidine for Aβ analysis or in SDS sample buffer for Western blot analysis. Protein concentrations in the cell extracts were determined using a bicinchoninic acid protein assay (Pierce Biotechnology, Rockford, IL, USA). Equal amounts of protein were solubilized in 2.5× SDS sample buffer, separated on 12% SDS-polyacrylamide gels, transferred to Immobilon-P (EMD Millipore, Billerica, MA, USA), and immunoblotted with the antibodies indicated in the Materials subsection above. For Western blot experiments, protein levels were normalized to actin levels. An unpaired t test was performed to compare two groups at a single time point. When comparing multiple groups, one-way analysis of variance (ANOVA) followed by Tukey’s post hoc test was used. All statistical analysis was conducted using GraphPad InStat software.

[3] = system: VCAM; test: Immunoblotting of hippocampal tissue; assay type: in vivo; conditions: hippocampus, AD mice
Protocol: as §1

[4] = system: Drebrin; test: Immunoblotting of hippocampal tissue; assay type: in vivo; conditions: hippocampus, AD mice fed CAD-31 vs AD mice not fed
Protocol: as §1

[5] = system: Arc-1; test: Immunoblotting of hippocampal tissue; assay type: in vivo; conditions: hippocampus, AD mice fed CAD-31 vs AD mice not fed
Protocol: as §1

[6] = system: clusterin; test: Immunoblotting of hippocampal tissue; assay type: in vivo; conditions: hippocampus, AD mice
Protocol: as §1

[7] = system: RAGE; test: Immunoblotting of hippocampal tissue; assay type: in vivo; conditions: hippocampus, AD mice
Protocol: as §1

[8] = system: AMPK phosphorylation; test: Immunoblotting of hippocampal tissue; assay type: in vivo; conditions: hippocampus, WT and old AD mice, 200 ppm in chow 3 months
Protocol: as §1

[9] = system: OSCP; test: Immunoblotting of hippocampal tissue; assay type: in vivo; conditions: hippocampus, control and AD mice
Protocol: as §1

[10] = system: Aβ1–42; test: Aβ enzyme-linked immunosorbent assay; assay type: in vivo, mice
Protocol: as §1
Aβ1–42 levels in hippocampal lysate were analyzed using Aβ1–42 enzyme-linked immunosorbent assay kits from Invitrogen (catalogue number KHB3442). All kit reagents were brought to room temperature before use. […] A quantity of 50 μl of Aβ peptide standards and samples was added in duplicate to 96-well plates precoated with antibody to the NH2-terminal region of Aβ. […] Stop solution was then added at 100 μl to each well, followed by reading the absorbance of each well at 450 nm. […] The concentrations of the samples were calculated from the standard curve and multiplied by the dilution factor.

[11] = brain of CAD-31 treated hAPPswe/PS1ΔE9 mice (AD+31)

**Q.** For Cc1ccc(N(/N=C/c2cccc(OC(F)(F)F)c2)C(=O)C(F)(F)F)c(C)c1 [CAD-31], which “body weights and food consumption” value [1] is on record?
**A.** no significant differences between the groups

**Q.** What about the “eIF2α phosphorylation (ratio to total eIF2α)” value [2] of the same molecule?
**A.** stimulates eIF2α phosphorylation in both WT and old AD mice

**Q.** And the VCAM expression [3]?
**A.** reduced the expression

**Q.** And the Drebrin expression [4]?
**A.** increased expression of both proteins

**Q.** And the Arc-1 expression [5]?
**A.** increased expression of both proteins

**Q.** What about the clusterin expression [6] of the same molecule?
**A.** reduced the expression

**Q.** And the RAGE expression [7]?
**A.** reduced the expression

**Q.** And the “AMPK activation by phosphorylation (ratio to total AMPK)” value [8]?
**A.** enhanced

**Q.** What about the OSCP expression [9] of the same molecule?
**A.** increased expression of OSCP in both control and AD mice

**Q.** What about the “RIPA Insoluble Aβ1-42” value [10, 11] of the same molecule?
**A.** 4581 ± 489.3 pg/mg protein

**Q.** What about the “RIPA Soluble Aβ1-42” value [10, 11] of the same molecule?
**A.** 16.57 ± 3.359 pg/mg protein

**Q.** What about the “levels of soluble or insoluble Aβ1–42” value ([10]; therapeutic paradigm, AD mice) of the same molecule?
**A.** did not reduce the levels of either soluble or insoluble Aβ1–42
